# Assay results taken from US6319952A, “Compositions and methods for reversibly increasing permeability of biomembranes” (D-Pharm Ltd., priority 1997, dated 2001).
# Experiments:
# [1] = tested on: rat brain; experiment: Water concentration in the rat brain after intra-arterial administration (cerebral edema); format: in vivo; conditions: 20 μg/ml, 24 h
# Description: The rats were treated by intraarterial infusion of M 3/14 20 μg/ml or phosphate buffered saline as control. After 24 hours the rats were decapitated, the brain was removed and dried at 110° C. until constant weight was achieved (normally three days). The percent water was calculated by the following equation:
# % water=(wet sample weight-dry sample weight)×100/(wet sample weight)
# This procedure is according to Karpiak and Mahadik (1984, J. Neurosci. Res. 12, 485-492).
# [2] = tested on: bovine brain capillary endothelial cells in co-culture with astrocytes; experiment: Transcellular permeability (albumin-FITC clearance), in vitro coculture model of the BBB; format: cell-based; conditions: 0.24 mg/ml
# Description: 1 hr incubation with the test material and five different concentrations: 0.04; 0.08; 0.16; 0.24; 0.32 mg/ml corresponding to 0.125; 0.25; 0.5; 0.75; 1×10^-3 M, were chosen for this experiment.
# Stock solution of DP-BFA was added directly to the coculture medium (upper compartment) in order to obtain a dilution of 1:40.
# Permeability studies was carried out on the monolayer of endothelial cells using a transcellular tracer: albumin-FITC (fluorescein isothiocyanate), MW=66500. There is no albumin receptor on endothelial cells. Albumin crossed the monolayer by a non-specific transport.
# To obtain a concentration-dependent transport parameter, the clearance principle was used like sucrose or inulin (see paragraph 2.2.).
# Albumin-FITC was used on endothelial cells at the concentration of 100 μg/ml in Ringer-Hepes 0.4% albumin.
# The fluorescence of each sample was determined at λexcitation of 495 and λemission of 525 using a fluorescence spectrophotometer F-2000 (Hitachi).
# In that case, the results are presented as clearance (μl) in function of time (min) and clearance at 180 minutes for each condition.
# [3] = tested on: mice; experiment: Acute intravenous toxicity test in mice; format: in vivo; conditions: i.v.
# Description: (§1) An acute intravenous toxicity test was performed to study the toxicity of the branched fatty acids in mice. The study included mortality and behavioral observations during three days. The rate of mortality is represented in the Table 5. M 3/14 caused mortality at a dose of 175 mg/kg; M3/12 at a dose of 75 mg/kg and M 3/10 at a dose of 100 mg/kg. Death was observed ten minutes after i.v. injection. In sub-lethal doses no significant behavior changes were observed.
# [4] = Acute intravenous toxicity test in mice; format: in vivo; conditions: mouse, in vivo; intravenous administration to mice
# Description: as §1
# [5] = Stability and solution appearance of DP-BFA; format: physicochemical
# Description: DP-BFA is stored in a hermetically sealed dark vial filled with Argon at 5° C. for up to 3 months. The drug quantity was taken out the vial cap with a Teflon spatula. The compound was dissolved in sodium carbonate-sodium bicarbonate buffered saline solution adjusted to pH 8.8-9 at 37° C. A stock solution (12.8 mg/ml) was prepared and kept at 37° C. for 15 minutes. The solution was protected from light by covering it with aluminium foil. […] The desired concentration of DP-BFA was obtained by diluting the stock solution with the buffer. The solutions were filtered through a […] filter. The DP-BFA solutions were kept at 37° C. in vials protected from light, for no more than 6 hours.
# [6] = tested on: blood-brain barrier (BBB); experiment: Effect of branched chain fatty acids on BBB permeability by qualitative Evan's Blue (EB) evaluation in rats; format: in vivo, rat (male Sprague-Dawley)
# Description: Evaluation of Effect of Branched Fatty Acids on Blood-brain Barrier Permeability
# The experiments were carried out on male Sprague-Dawley rats weighing 250-320 gr. They were anesthetized with Rampun-Imalgen. The right common carotid artery was exposed.
# The test compounds were dissolved in 0.1M phosphate buffered physiological saline (pH=7.4) at the following test concentrations: 1.6; 8; 20; 40; 200 and 1000 μg/ml.
# The test compound was infused into the right common carotid artery at a rate of 6 ml/min. for 30 s. The control rats were infused with buffer. Evan's Blue (EB) solution at a concentration of […] (2 g Evan's Blue, 0.9 g NaCl in 100 ml water) was injected intravenously 50 minutes prior to the termination of the experiment.
# In the case of 45 min experiment, five minutes prior to the infusion of the tested material, 4 ml/kg body wt dose of Evans Blue solution was injected intravenously.
# At the end of the experimental time period the animals were perfused with 100 ml of saline solution through the heart and decapitated. The degree of BBB opening, in terms of extravasation of Evan's Blue albumin, was graded on the basis of visual assessment of the degree of staining of the brain ato the method of Rapoport et al. (Rapoport et al., 1980, Amer. J. Physiol. 258, 421-431), and the results are presented in Tables 1 and 2.
# The results presented are qualitative with four degrees of Evan's Blue extravasation according to Rapoport et al. Minus signs represents no staining and three plus signs represent maximal staining.
compound,measurement,setting,value
"CCCCCCCCCCCCCCC(CCC)C(=O)O (stereo not shown) [M 3/14, 2-propylhexadecanoic acid]",cerebral edema,[1],no cerebral edema effect
same,"water content of brain, treated vs non treated rats",[1],no significant difference
same,Brain weight,[1]; intra-arterial,1.494 g
same,Brain weight after drying,[1]; intra-arterial,0.311 g
same,Water,[1]; intra-arterial,79.19%
same,non-specific transcellular transport,[2]; 1 hr incubation,increase of non-specific transcellular transport
same,activation at 240 µg/mL,"[2]; Bos taurus, 1 hour incubation, read-out: increase in permeability of the monolayer for albumin (clearance at 180 minutes)",268%
same,Mortality,"[3]; 50 mg/kg, 5 mg/ml",0/3
same,Mortality,"[3]; 100 mg/kg, 5 mg/ml",0/3
same,Mortality,"[3]; 150 mg/kg, 10 mg/ml",0/3
same,Mortality,"[3]; 175 mg/kg, 10 mg/ml",3/3
same,dose causing mortality,"[3]; mice, three days",175 mg/kg
same,LD50 at 72 h,[4],150 to 175 mg/kg
same,appearance of stock solution,"[5]; 12.8 mg/ml, carbonate-bicarbonate buffered saline, pH 8.8-9, 37° C.",completely transparent
same,"stability (sensitivity to light, CO2)","[5]; white powder, sodium salt",sensitive to light and atmospheric CO2
same,Visual EB,"[6]; 1.6 μg/ml (5 μM/ml), 180 min",-
same,Visual EB,"[6]; 8 μg/ml (25 μM/ml), 180 min",+
same,Visual EB,"[6]; 20 μg/ml (62.5 μM/ml), 180 min",+
same,Visual EB,"[6]; 40 μg/ml (125 μM/ml), 45 min",++
same,Visual EB,"[6]; 40 μg/ml (125 μM/ml), 180 min",++
same,Visual EB,"[6]; 125 μM, 180 min, intracarotid infusion",++
same,Visual EB,"[6]; 200 μg/ml (625 μM/ml), 45 min",+++
same,Visual EB,"[6]; 625 μM, 45 min, intracarotid infusion",+++
same,Visual EB,"[6]; 1000 μg/ml (3125 μM/ml), 45 min",+++
same,"BBB permeability enhancement, potency ranking",[6]; Table 1 compounds,most potent BBB permeability enhancer
